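Values below derive from 48-hour exposures of cells grown in 96-well plates, with endpoints linearly interpolated between the two concentrations bracketing the appropriate inhibition level. GI50: concentration for 50% inhibition of growth.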 Calls of active or inactive are those of the source. Cut-off read from the data, not from the text of the source: active = GI50 up to about 1.1 µM and inactive = higher.
What was measured:
Test in all cases: inhibition of tumour cell growth, NCI panel, 48 h
[1] = tested on: SF-539
[2] = tested on: M14
[3] = tested on: KM-20L2
[4] = tested on: COLO 205
[5] = tested on: CAKI-1
[6] = tested on: EKVX
[7] = tested on: 786-0
[8] = tested on: DMS-273
[9] = tested on: IGROV-1
[10] = tested on: U-251
[11] = tested on: NCI-H226
[12] = tested on: NCI-H522
[13] = tested on: OVCAR-5
[14] = tested on: SNB-19
[15] = tested on: HCT-15
[16] = tested on: HCT-116
[17] = tested on: HL-60
[18] = tested on: UO-31
[19] = tested on: OVCAR-4
[20] = tested on: SNB-78
[21] = tested on: RPMI-8226
[22] = tested on: SW-620
[23] = tested on: A498
[24] = tested on: SK-MEL-5
[25] = tested on: LOX IMVI
[26] = tested on: SK-MEL-2
[27] = tested on: SF-295
[28] = tested on: SK-OV-3
[29] = tested on: SR
[30] = tested on: K562
[31] = tested on: SN12C
[32] = tested on: SF-268
[33] = tested on: KM12
[34] = tested on: SK-MEL-28
[35] = tested on: HOP-18
[36] = tested on: UACC-257
[37] = tested on: LXFL 529
[38] = tested on: NCI-H23
[39] = tested on: A549
[40] = tested on: DLD-1
[41] = tested on: UACC-62
[42] = tested on: NCI-H460
[43] = tested on: Malme-3M
[44] = tested on: HOP-62
[45] = tested on: TK-10
[46] = tested on: HCC 2998
[47] = tested on: HT-29
[48] = tested on: ACHN
[49] = tested on: RXF 393
[50] = tested on: MOLT-4
[51] = tested on: SNB-75
[52] = tested on: OVCAR-3
[53] = tested on: M19-MEL
[54] = tested on: CCRF-CEM
[55] = tested on: DMS-114
[56] = tested on: OVCAR-8
[57] = tested on: HOP-92

Q: For `COC(=O)/C(=N\NC(=O)C[N+](C)(C)C)C(C(=O)OC)C(=O)C(=O)Nc1ccccc1C(N)=O` (centres undefined), which GI50 [1] is on record?
A: > 100 µM (inactive)

Q: What about the GI50 [2] of the same molecule?
A: > 100 µM (inactive)

Q: And the GI50 [3]?
A: > 100 µM (inactive)

Q: What about the GI50 [4] of the same molecule?
A: > 100 µM (inactive)

Q: What about the GI50 [5] of the same molecule?
A: > 100 µM (inactive)

Q: What about the GI50 [6] of the same molecule?
A: > 100 µM (inactive)

Q: What about the GI50 [7] of the same molecule?
A: > 100 µM (inactive)

Q: What about the GI50 [8] of the same molecule?
A: > 100 µM (inactive)

Q: And the GI50 [9]?
A: > 100 µM (inactive)

Q: And the GI50 [10]?
A: > 100 µM (inactive)

Q: And the GI50 [11]?
A: > 100 µM (inactive)

Q: And the GI50 [12]?
A: > 100 µM (inactive)

Q: And the GI50 [13]?
A: > 100 µM (inactive)

Q: And the GI50 [14]?
A: > 100 µM (inactive)

Q: What about the GI50 [15] of the same molecule?
A: > 100 µM

Q: What about the GI50 [16] of the same molecule?
A: > 100 µM (inactive)

Q: And the GI50 [17]?
A: > 100 µM (inactive)

Q: What about the GI50 [18] of the same molecule?
A: > 100 µM (inactive)

Q: What about the GI50 [19] of the same molecule?
A: > 100 µM (inactive)

Q: And the GI50 [20]?
A: > 100 µM (inactive)

Q: What about the GI50 [21] of the same molecule?
A: > 100 µM (inactive)

Q: And the GI50 [22]?
A: > 100 µM (inactive)

Q: What about the GI50 [23] of the same molecule?
A: > 100 µM (inactive)

Q: What about the GI50 [24] of the same molecule?
A: > 100 µM (inactive)

Q: And the GI50 [25]?
A: > 100 µM (inactive)

Q: And the GI50 [26]?
A: > 100 µM (inactive)

Q: What about the GI50 [27] of the same molecule?
A: > 100 µM (inactive)

Q: And the GI50 [28]?
A: > 100 µM (inactive)

Q: What about the GI50 [29] of the same molecule?
A: > 100 µM (inactive)

Q: And the GI50 [30]?
A: > 100 µM (inactive)

Q: What about the GI50 [31] of the same molecule?
A: > 100 µM (inactive)

Q: What about the GI50 [32] of the same molecule?
A: > 100 µM (inactive)

Q: And the GI50 [33]?
A: > 100 µM (inactive)

Q: And the GI50 [34]?
A: > 100 µM (inactive)

Q: What about the GI50 [35] of the same molecule?
A: > 100 µM (inactive)

Q: And the GI50 [36]?
A: > 100 µM (inactive)

Q: What about the GI50 [37] of the same molecule?
A: > 100 µM (inactive)

Q: What about the GI50 [38] of the same molecule?
A: > 100 µM (inactive)

Q: What about the GI50 [39] of the same molecule?
A: > 100 µM (inactive)

Q: And the GI50 [40]?
A: > 100 µM (inactive)

Q: And the GI50 [41]?
A: > 100 µM (inactive)

Q: And the GI50 [42]?
A: > 100 µM (inactive)

Q: And the GI50 [43]?
A: > 100 µM (inactive)

Q: What about the GI50 [44] of the same molecule?
A: > 100 µM (inactive)

Q: What about the GI50 [45] of the same molecule?
A: > 100 µM (inactive)

Q: And the GI50 [46]?
A: > 100 µM (inactive)

Q: And the GI50 [47]?
A: > 100 µM (inactive)

Q: What about the GI50 [48] of the same molecule?
A: > 100 µM (inactive)

Q: And the GI50 [49]?
A: > 100 µM (inactive)

Q: And the GI50 [50]?
A: > 100 µM (inactive)

Q: What about the GI50 [51] of the same molecule?
A: > 100 µM (inactive)

Q: And the GI50 [52]?
A: > 100 µM (inactive)

Q: And the GI50 [53]?
A: > 100 µM (inactive)

Q: And the GI50 [54]?
A: > 100 µM (inactive)

Q: What does the source list for `N#CC(=C1C=CC(=NO)C=C1)c1ccc(Cl)cc1`?
A: GI50 [1]: 7.33 µM (inactive); GI50 [2]: 16.4 µM (inactive); GI50 [3]: 19.7 µM (inactive); GI50 [55]: 15.4 µM (inactive); GI50 [4]: 16.8 µM (inactive); GI50 [5]: 15.1 µM (inactive); GI50 [7]: 2.29 µM (inactive); GI50 [8]: 6.58 µM (inactive); GI50 [9]: 17.1 µM (inactive); GI50 [10]: 13.6 µM (inactive); GI50 [56]: 19.1 µM (inactive); GI50 [57]: 20 µM (inactive); GI50 [12]: 2.47 µM (inactive); GI50 [13]: 11.9 µM (inactive); GI50 [14]: 42.4 µM (inactive); GI50 [15]: 13.7 µM; GI50 [16]: 7.52 µM (inactive); GI50 [17]: 2.36 µM (inactive); GI50 [18]: 11.5 µM (inactive); GI50 [19]: 22.5 µM (inactive); GI50 [21]: 2.6 µM (inactive); GI50 [22]: 7.21 µM (inactive); GI50 [23]: 67.3 µM (inactive); GI50 [24]: 7.5 µM (inactive); GI50 [25]: 3.22 µM (inactive); GI50 [26]: 4.36 µM (inactive); GI50 [27]: 16.6 µM (inactive); GI50 [28]: 22.2 µM (inactive); GI50 [29]: 4.83 µM (inactive); GI50 [30]: 3.78 µM (inactive); GI50 [31]: 16.5 µM (inactive); GI50 [32]: 11.9 µM (inactive); GI50 [33]: 1.69 µM (inactive); GI50 [34]: 15.7 µM (inactive); GI50 [35]: 49 µM (inactive); GI50 [37]: 4.97 µM (inactive); GI50 [38]: 23.7 µM (inactive); GI50 [39]: 18.7 µM (inactive); GI50 [40]: 14.2 µM (inactive); GI50 [41]: 3.71 µM (inactive); GI50 [42]: 18.2 µM (inactive); GI50 [43]: 21.8 µM (inactive); GI50 [44]: 15.3 µM (inactive); GI50 [45]: 24.7 µM (inactive); GI50 [46]: 17.5 µM (inactive); GI50 [47]: 5.56 µM (inactive); GI50 [48]: 10.6 µM (inactive); GI50 [49]: 16 µM (inactive); GI50 [50]: 5.74 µM (inactive); GI50 [51]: 24.3 µM (inactive); GI50 [52]: 3.52 µM (inactive); GI50 [53]: 15 µM (inactive); GI50 [54]: 2.69 µM (inactive)

Q: What does the source list for `O=S(=O)(O)C(O)/C=C/c1ccccc1` (centres undefined)?
A: GI50 [2]: > 100 µM (inactive); GI50 [3]: > 100 µM (inactive); GI50 [55]: 65.2 µM (inactive); GI50 [4]: > 100 µM (inactive); GI50 [5]: > 100 µM (inactive); GI50 [6]: > 100 µM (inactive); GI50 [7]: > 100 µM (inactive); GI50 [8]: > 100 µM (inactive); GI50 [9]: > 100 µM (inactive); GI50 [10]: > 100 µM (inactive); GI50 [56]: > 100 µM (inactive); GI50 [11]: > 100 µM (inactive); GI50 [12]: > 100 µM (inactive); GI50 [13]: > 100 µM (inactive); GI50 [14]: > 100 µM (inactive); GI50 [15]: > 100 µM; GI50 [16]: 78.5 µM (inactive); GI50 [17]: > 100 µM (inactive); GI50 [18]: > 100 µM (inactive); GI50 [19]: > 100 µM (inactive); GI50 [22]: > 100 µM (inactive); GI50 [23]: > 100 µM (inactive); GI50 [24]: > 100 µM (inactive); GI50 [25]: 49.3 µM (inactive); GI50 [26]: > 100 µM (inactive); GI50 [27]: > 100 µM (inactive); GI50 [28]: > 100 µM (inactive); GI50 [29]: 26.6 µM (inactive); GI50 [30]: > 100 µM (inactive); GI50 [31]: > 100 µM (inactive); GI50 [32]: > 100 µM (inactive); GI50 [33]: > 100 µM (inactive); GI50 [34]: > 100 µM (inactive); GI50 [35]: > 100 µM (inactive); GI50 [36]: > 100 µM (inactive); GI50 [37]: > 100 µM (inactive); GI50 [38]: > 100 µM (inactive); GI50 [39]: > 100 µM (inactive); GI50 [40]: > 100 µM (inactive); GI50 [41]: > 100 µM (inactive); GI50 [43]: > 100 µM (inactive); GI50 [44]: > 100 µM (inactive); GI50 [45]: > 100 µM (inactive); GI50 [46]: > 100 µM (inactive); GI50 [47]: > 100 µM (inactive); GI50 [48]: > 100 µM (inactive); GI50 [49]: > 100 µM (inactive); GI50 [50]: > 100 µM (inactive); GI50 [51]: > 100 µM (inactive); GI50 [52]: > 100 µM (inactive); GI50 [53]: > 100 µM (inactive); GI50 [54]: 52.5 µM (inactive)
